In US20240408087A1, “TRPC6 INHIBITORY COMPOUNDS FOR TREATING SEPSIS” (Boehringer Ingelheim International GmbH, priority 2021, published 2024):

Tests used:
mouse CLP model [1] = assay: Acute model of CLP: vascular hyper-permeability (Evans blue extravasation); format: in vivo
Method: Cecal ligation puncture (CLP) is a model of polymicrobial sepsis which consists of extruding fecal content in the abdominal cavity of the animals under anesthesia.
(§1) Two models were performed: • Acute model of CLP lasting 24 h to measure vascular hyper-permeability in lung, liver, kidney and heart tissue. The vascular hyper-permeability was followed by the extravasation of Evans blue injected intravenously and diffused and accumulated into the tissue. The vascular hyper-permeability was expressed as μg of Evans blue in 100 mg of dry tissue. • Chronic model of CLP lasting 8 days. CLP is performed on day 0 and the survival rate is followed for 8 consecutive days.
(§2) Mice were anesthetized with ketamine (80 mg kg^−1, i.p.) and xylazine (10 mg kg^−1, i.p.). A 1-1.5 cm abdominal midline incision was made, and the caecum was located and tightly ligated at half the distance between distal pole and the base of the caecum with 4-0 silk suture (mild grade). The caecum was punctured through-and-through once with a 21-gauge needle after medium ligation. A small amount of stool was extruded to ensure that the wounds were patent. Then the cecum was replaced in its original position within the abdomen, which was closed with sutures in layers. For negative control animals, a sham surgery was performed: sham-operated animals underwent identical laparotomy but without cecal ligation or puncture. The animals were resuscitated immediately after surgery with 1 mL subcutaneous normal saline and returned to their cages. Experiment was terminated at 24 hrs after CLP.
10 mice were included in each group.
Evans blue dye (0.1 mL at 40 mg/kg) was injected through each tail vein 30 minutes before euthanasia at 24 hours after CLP. Lung, kidney, liver and heart tissues are collected, and Evans blue was extracted in Formamide. The concentration of the Evans blue dye was calculated from a standard curve and expressed as μg/100 mg lung dry tissue. The data were analyzed by using commercially available software (Prism, version 8.3.0; GraphPad Software Inc., San Diego, CA). Different groups were compared with the one-way variance analysis (ANOVA) followed by the Dunnett test (e.g CLP group compared to treated groups). All data were expressed as a mean±SEM. The limit of the significance was taken as p values less than 0.05 (p<0.05).

mouse CLP model [2] = assay: Chronic model of CLP: survival rate; format: in vivo
Method: as §1
as §2, with “On day 0, mice” for “Mice”, “cages.” for “cages. Experiment was terminated at 24 hrs after CLP.”
Compound 2 of WO 2019/161010 or its vehicle (0.5% natrosol 0.010% Tween 80) was given orally (5 ml/kg) at 30 mg/kg 2 h after CLP and once daily from day 1 to day 6. Adrecizumab, anti-adrenomedullin antibody, was given at 4 mg/kg i.v. only once, 1 h before CLP. 10 mice were included in each group.
In a second experiment, Compound 17 or its vehicle (0.5% natrosol 0.010% Tween 80) was given orally (5 ml/kg). Compound 17 was given at 10 mg/kg in two groups. In the first group, Compound 17 was given at 2 h after CLP and twice daily from day 1 to day 6. In the second group, Compound 17 was given at 24 h after CLP and twice daily from day 2 to day 6. 10 mice were included in each group.

[3] = system: LPS aerosol induced lung edema; assay: LPS-induced vascular leakage in a mouse model (BALF total protein); format: in vivo; settings: 4 h after LPS, average of two experiments
Method: Mice are placed in a chamber and exposed to Lipopolysaccharide (LPS, known as endotoxin and found in outer membrane of Gram-negative bacteria such as Escherichia Coli) aerosol (0.8 mg/ml) for 30 min (or Phosphate-Buffered Saline, PBS as vehicle). The TRPC6 inhibitor compound 17 is given orally 12 h and 2 h before LPS challenge. The mice are euthanized 4 h after the end of the LPS aerosol exposure. Blood is collected for plasma exposure of the compound and the lungs are flushed with 0.8 ml PBS. The broncho-alveolar-lavage is centrifuged at 500 revolutions/min for 10 min and the supernatant is collected for the measurement of total protein according to Lowry measurement by absorbance at 660 nm. The mouse LPS experiment is repeated twice, and the data of each experiment are represented in FIG. 3.1 for the first experiment and FIG. 3.2 for the second experiment. FIG. 3.3 represents the average of the two experiments expressed in percent of the LPS group.
LPS aerosol induced lung edema is characterized by a significant accumulation of Broncho-Alveolar-Lavage protein (BALF protein). […]
FIG. 3.1 and FIG. 3.2 show the amount and FIG. 3.3 the percent of total protein in BALF (Broncho Alveolar Lavage Fluid) after LPS (LipoPolySaccharide) treatment without or after pretreatment with (+) compound 17 as evaluated along the following tabular scheme

TRPC6 = target: T1, TRPC6 (Homo sapiens, UniProt Q9Y210); assay: in vitro Patch Clamp; format: cell-based
T1 sequence (Q9Y210 1-931): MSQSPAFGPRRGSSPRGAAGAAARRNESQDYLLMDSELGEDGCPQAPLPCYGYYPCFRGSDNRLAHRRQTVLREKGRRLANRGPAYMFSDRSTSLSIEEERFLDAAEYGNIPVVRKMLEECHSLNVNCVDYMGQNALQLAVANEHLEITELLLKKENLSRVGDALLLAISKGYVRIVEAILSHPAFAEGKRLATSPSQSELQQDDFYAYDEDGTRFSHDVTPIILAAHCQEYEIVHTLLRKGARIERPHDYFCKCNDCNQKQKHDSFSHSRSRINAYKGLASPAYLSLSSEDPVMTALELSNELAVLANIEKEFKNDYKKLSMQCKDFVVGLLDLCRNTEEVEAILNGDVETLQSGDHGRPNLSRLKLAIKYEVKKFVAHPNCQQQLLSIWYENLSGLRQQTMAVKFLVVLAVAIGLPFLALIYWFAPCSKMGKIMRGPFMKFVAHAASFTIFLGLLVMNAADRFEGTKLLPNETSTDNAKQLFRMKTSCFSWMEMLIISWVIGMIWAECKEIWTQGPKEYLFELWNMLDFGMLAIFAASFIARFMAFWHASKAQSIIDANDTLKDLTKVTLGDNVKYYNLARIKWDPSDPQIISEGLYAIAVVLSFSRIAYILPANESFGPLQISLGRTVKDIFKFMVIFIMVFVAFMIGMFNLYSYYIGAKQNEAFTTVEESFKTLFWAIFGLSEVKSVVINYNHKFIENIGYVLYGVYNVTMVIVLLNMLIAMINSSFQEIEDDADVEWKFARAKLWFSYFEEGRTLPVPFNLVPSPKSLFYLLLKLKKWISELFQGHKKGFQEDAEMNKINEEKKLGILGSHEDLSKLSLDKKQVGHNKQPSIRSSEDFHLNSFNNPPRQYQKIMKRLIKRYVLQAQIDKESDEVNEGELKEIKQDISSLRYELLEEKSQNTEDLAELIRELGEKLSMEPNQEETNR

[4] = Example 1, prophylactic mode, 30 mg/kg orally 2 h before and 8 h after CLP
[5] = Example 1, therapeutic mode, 30 mg/kg orally 2 h and 8 h after CLP
[6] = Example 2, 30 mg/kg orally, therapeutic mode 2 and 8 h after CLP
[7] = Example 2, 10 mg/kg orally, therapeutic mode 2 and 8 h after CLP

Question: Which “inhibition of Evans blue concentration in heart” value (mouse CLP model [1]; Example 1, heart, therapeutic mode, 30 mg/kg orally 2 h and 8 h after CLP) does the source give for `Nc1ccc(C2CCN(C(=O)c3ccc(Oc4ccc(C(F)(F)F)cc4)cc3)CC2)nn1` [Compound 2 of WO 2019/161010] here?
Answer: 94%

Question: What about the “inhibition of Evans blue concentration in kidney” value (mouse CLP model [1]; [4]) of the same compound?
Answer: 84%

Question: What about the “inhibition of Evans blue concentration in kidney” value (mouse CLP model [1]; [5]) of the same compound?
Answer: 98%

Question: What about the “inhibition of Evans blue concentration in liver” value (mouse CLP model [1]; [4]) of the same compound?
Answer: 71%

Question: And the “inhibition of Evans blue concentration in liver” value (mouse CLP model [1]; [5])?
Answer: 88%

Question: And the “inhibition of Evans blue concentration in lung” value (shortened to “inhibition … in lung”) (mouse CLP model [1]; Example 1, lung, prophylactic mode, 30 mg/kg orally 2 h before and 8 h after CLP, 24 h after CLP)?
Answer: 87%

Question: And the “inhibition … in lung” value (mouse CLP model [1]; Example 1, lung, therapeutic mode, 10 mg/kg orally 2 h and 8 h after CLP, 24 h after CLP)?
Answer: 87%

Question: What about the “inhibition … in lung” value (mouse CLP model [1]; Example 1, lung, therapeutic mode, 30 mg/kg orally 2 h and 8 h after CLP, 24 h after CLP) of the same compound?
Answer: 100%

Question: And the “reduction of Evans blue concentration in heart” value (“reduction … in heart” for short) (mouse CLP model [1]; Example 2, heart, 30 mg/kg orally, therapeutic mode 2 and 8 h after CLP)?
Answer: 100%

Question: And the “reduction of Evans blue concentration in kidney” value (mouse CLP model [1]; [6])?
Answer: 90%

Question: What about the “reduction of Evans blue concentration in liver” value (mouse CLP model [1]; [6]) of the same compound?
Answer: 58%

Question: And the “reduction of Evans blue concentration in lung tissue” value (mouse CLP model [1]; Example 2, lung, 30 mg/kg orally, therapeutic mode 2 and 8 h after CLP)?
Answer: 94%

Question: And the “survival rate at day 8” value (mouse CLP model [2]; first experiment, 30 mg/kg orally 2 h after CLP and once daily from day 1 to day 6)?
Answer: 50%

Question: And the “survival rate compared with adrecizumab” value (mouse CLP model [2]; first experiment, day 8)?
Answer: significantly superior to adrecizumab survival rate

Question: With `COc1cc(C(=O)N2CCC(c3ccc(N)nn3)CC2)ncc1Oc1ccc(F)cc1` [Compound 17, [4-(6-Amino-pyridazin-3-yl)-piperidin-1-yl]-[5-(4-fluoro-phenoxy)-4-methoxy-pyridin-2-yl]-methanone] as the compound, how does the “reduction … in heart” value (mouse CLP model [1]; Example 2, heart, 3 mg/kg orally, therapeutic mode 2 and 8 h after CLP) read?
Answer: 100%

Question: And the “reduction … in heart” value (mouse CLP model [1]; Example 2, heart, 10 mg/kg orally, therapeutic mode 2 and 8 h after CLP)?
Answer: 120%

Question: And the “reduction of Evans blue concentration in kidney” value (mouse CLP model [1]; [7])?
Answer: 95%

Question: What about the “reduction of Evans blue concentration in liver” value (mouse CLP model [1]; [7]) of the same compound?
Answer: 48%

Question: What about the “inhibition … in lung” value (mouse CLP model [1]; Example 2, lung, 1 mg/kg orally, therapeutic mode 2 and 8 h after CLP) of the same compound?
Answer: 65%

Question: And the “inhibition … in lung” value (mouse CLP model [1]; Example 2, lung, 3 mg/kg orally, therapeutic mode 2 and 8 h after CLP)?
Answer: 90%

Question: What about the “inhibition … in lung” value (mouse CLP model [1]; Example 2, lung, 10 mg/kg orally, therapeutic mode 2 and 8 h after CLP) of the same compound?
Answer: 100%

Question: What about the vascular leakage (mouse CLP model [1]; summary of FIGS. 2.1 to 2.4 (CLP) and FIGS. 3.1 to 3.3 (LPS)) of the same compound?
Answer: significantly reduces vascular leakage

Question: And the “reduction of BALF protein concentration” value ([3]; 3 mg/kg p.o. 12 h and 2 h before LPS aerosol)?
Answer: 56%

Question: What about the “reduction of BALF protein concentration” value ([3]; 10 mg/kg p.o. 12 h and 2 h before LPS aerosol) of the same compound?
Answer: 62%

Question: And the “survival rate at day 8” value (mouse CLP model [2]; second experiment, 10 mg/kg orally at 2 h after CLP and twice daily from day 1 to day 6)?
Answer: 60%

Question: And the “survival rate at day 8” value (mouse CLP model [2]; second experiment, 10 mg/kg orally at 24 h after CLP and twice daily from day 2 to day 6)?
Answer: 50%

Question: What about the IC50 (TRPC6) of the same compound?
Answer: 19 nM

Question: What about the IC90 (TRPC6) of the same compound?
Answer: 104 nM

Question: And the “in vitro Patch Clamp IC75” value (TRPC6)?
Answer: 48 nM

Question: How did the “survival rate at day 8” value (mouse CLP model [2]; first experiment, 4 mg/kg i.v. only once, 1 h before CLP) turn out when “Adrecizumab: anti-adrenomedullin antibody” was run?
Answer: 30%
